Tests used:
[1] = test system: CML 34^+DR^+ CFC and LTC-IC; assay: MTX sensitivity of NL and CML CFC and LTC-IC (serum-free methylcellulose assay / LTC); type: cell-based, human; settings: increasing MTX concentrations, FIG. 2A, 2B
Method: (§1) FIG. 2. Drug sensitivity of untransduced cells. A) NL and CML 34^+DR^+ cells were plated in a serum-free methylcellulose assay with increasing MTX concentrations to determine the MTX sensitivity of CFC. B) NL 34^+DR^− cells (LTC-IC) and CML 34^+DR^+ (Ph^+ LTC-IC) cells were incubated for 1 week in serum-free medium and cytokines with increasing MTX concentrations and then replated in LTC for 5 weeks. The number of MTX resistant LTC-IC was determined by replating LTC derived progeny in methylcellulose without […]. C) NL and CML 34^+DR^+ cells were plated directly in methylcellulose with increasing concentrations of taxol. D) NL 34^+DR^− cells (LTC-IC) and CML 34^+DR^+ (Ph^+LTC-IC) were plated in liquid culture for 7 days with increasing concentrations of taxol and then replated in LTC.
To determine the MTX sensitivity of normal (NL) and CML CFC cells, NL and CML 34^+DR^+ cells were plated in a serum-free methylcellulose assay with increasing MTX concentrations (FIG. 2A). To determine the MTX sensitivity of NL and CML LTC-IC cells, NL 34^+DR^− cells (LTC-IC) and CML 34^+DR^+ (Ph^+ LTC-IC) cells were also incubated for I week in serum-free medium and cytokines, with increasing MTX concentrations. The cells were then replated in LTC for 5 weeks. The number of MTX resistant LTC-IC was determined by replating LTC derived progeny in methylcellulose assay without MTX (FIG. 2B).

[2] = test system: CML and NL progenitors; assay: Taxol sensitivity of NL and CML cells (methylcellulose / liquid culture then LTC); type: cell-based, human; settings: increasing concentrations of taxol; FIG. 2C, 2D
Method: as §1
To determine the taxol sensitivity of NL and CML cells, NL and CML 34^+DR^+ and 34^+DR^− cells were plated either in liquid culture for 7 days with increasing concentrations of taxol and then replated in LTC (FIG. 2D). NL and CML cells were also plated directly in methylcellulose with increasing concentrations of taxol (FIG. 2C).

Structure (SMILES) | MTX sensitivity of CML 34+DR+ CFC and LTC-IC relative to NL 34+DR+ CFC and NL 34+DR− LTC-IC [1] | taxol sensitivity of CML versus NL progenitors [2]
CN(Cc1cnc2nc(N)nc(N)c2n1)c1ccc(C(=O)N[C@@H](CCC(=O)O)C(=O)O)cc1 [MTX, methotrexate] | at least equally sensitive | 
CC(=O)O[C@H]1C(=O)[C@@]2(C)[C@H]([C@H](OC(=O)c3ccccc3)[C@]3(O)C[C@H](OC(=O)[C@H](O)[C@@H](NC(=O)c4ccccc4)c4ccccc4)C(C)=C1C3(C)C)[C@]1(OC(C)=O)CO[C@@H]1C[C@@H]2O [taxol] |  | equal sensitivity
